From patent US8476301B2, “Pyrrolidin-3-ylacetic acid derivative” (Eisai R&D Management Co., Ltd., priority 2011, dated 2013)

Target: T1, CX3CR1 (Homo sapiens, UniProt P49238)
T1 construct: expressed in transfected cells; host or cells: B300 cells
T1 sequence (P49238 1-355): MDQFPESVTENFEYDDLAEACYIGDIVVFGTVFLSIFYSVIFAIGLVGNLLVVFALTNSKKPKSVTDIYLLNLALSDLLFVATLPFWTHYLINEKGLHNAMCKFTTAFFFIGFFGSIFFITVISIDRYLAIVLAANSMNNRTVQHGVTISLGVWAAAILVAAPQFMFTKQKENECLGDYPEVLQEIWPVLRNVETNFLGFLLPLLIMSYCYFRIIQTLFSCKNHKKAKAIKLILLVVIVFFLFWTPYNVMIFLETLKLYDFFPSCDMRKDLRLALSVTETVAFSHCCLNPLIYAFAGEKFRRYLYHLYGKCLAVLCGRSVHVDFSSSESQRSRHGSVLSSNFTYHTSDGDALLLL
Test: Inhibition of cell migration in fractalkine-induced chemotaxis assay
Format: cell-based
Conditions: CX3CR1-expressing B300 cells preincubated with test compound 30 minutes; fractalkine 0.3 nM in lower wells; Transwell, 3.5 hours at 37° C.; migrated cells counted with CellTiter; read-out: IC50 (nM), 50% inhibitory concentration on fractalkine-induced cell migration
Description: The inhibitory effects of the example compounds on fractalkine-induced cell migration were examined using CX3CR1-transfected B300 cells
After equilibrating the Transwell plate (24-well clusters, pore size: 5 μm, manufactured by Corning Incorporated), a fractalkine solution (0.3 nM, manufactured by R&D Systems, Inc.) was added to the lower wells. CX3CR1-expressing B300 cells which were preincubated with the test compound (0.001, 0.003, 0.01 or 0.03 μM) for 30 minutes were placed in the upper layer wells, followed by incubation under the condition of 5% CO2 for 3.5 hours at 37° C. The number of cells migrated to the lower wells was evaluated using CellTiter (manufactured by Promega Corporation).
The inhibitory rate of the test compound on fractalkine-induced cell migration was calculated by the following formula, where [A] is the number of migrated cells in the presence of both fractalkine and the test compound, [B] is the number of migrated cells in the presence of fractalkine and in the absence of the test compound, and [C] is the number of migrated cells in the absence of both fractalkine and the test compound; the 50% inhibitory concentration (IC50) was calculated based on the inhibitory rate. Inhibitory rate (%)=[1−{(A−C)/(B−C)}]×100 (2) Results

IC50 | SMILES
16 nM | C[C@H]1CN(Cc2c(Cl)cccc2Cl)C[C@@]1(CC(=O)O)C(=O)N[C@H]1CCN(CC2=CCCCC2)C1 (relative stereo) [Example 9]
31 nM | Cc1cccc(Cl)c1CN1C[C@H](C)[C@](CC(=O)O)(C(=O)NC2CCN(CC3=CCCC3)CC2)C1 [Example 8, 2-[(3S,4R)-1-[(2-Chloro-6-methylphenyl)methyl]-3-{[(1-cyclopent-1-en-1-ylmethyl)piperidin-4-yl]carbamoyl}-4-methylpyrrolidin-3-yl]acetic acid]
6 nM | C[C@H]1CN(Cc2c(Cl)cccc2Cl)C[C@@]1(CC(=O)O)C(=O)NC1CCN(CC2=CCCCC2)CC1 [Example 11, 2-[(3S,4R)-3-{[(1-Cyclohex-1-en-1-ylmethyl)piperidin-4-yl]carbamoyl}-1-[(2,6-dichlorophenyl)methyl]-4-methylpyrrolidin-3-yl]acetic acid]
